Data taken from patent publication US12655135B2, “Benzo seven-membered ring bifunctional compound and application thereof” (CHIA TAI TIANQING PHARMACEUTICAL GROUP CO., LTD., priority 2021, dated 2026).

Target: T1, ERα (Homo sapiens, UniProt P03372)
T1 construct: endogenous in cells; host or cells: MCF-7
T1 sequence (P03372 1-595): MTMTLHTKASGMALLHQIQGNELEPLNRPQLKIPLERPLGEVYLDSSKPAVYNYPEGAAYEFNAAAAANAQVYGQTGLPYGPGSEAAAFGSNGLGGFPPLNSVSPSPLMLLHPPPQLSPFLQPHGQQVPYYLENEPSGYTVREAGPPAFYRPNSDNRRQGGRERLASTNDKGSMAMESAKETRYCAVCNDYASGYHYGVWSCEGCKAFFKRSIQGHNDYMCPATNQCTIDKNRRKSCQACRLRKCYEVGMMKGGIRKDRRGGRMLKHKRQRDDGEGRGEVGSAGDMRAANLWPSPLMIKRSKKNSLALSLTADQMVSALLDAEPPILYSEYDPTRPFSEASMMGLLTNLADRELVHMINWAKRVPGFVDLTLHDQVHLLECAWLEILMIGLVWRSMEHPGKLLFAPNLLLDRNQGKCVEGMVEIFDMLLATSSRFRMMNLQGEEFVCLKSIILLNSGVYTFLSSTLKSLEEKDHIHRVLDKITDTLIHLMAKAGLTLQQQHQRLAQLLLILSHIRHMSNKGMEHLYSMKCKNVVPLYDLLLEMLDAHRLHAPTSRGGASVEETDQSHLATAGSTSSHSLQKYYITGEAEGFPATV
Test: MCF-7 ERα degradation experiment (Human Total ERα ELISA, 4 h incubation)
Type: cell-based
Details: MCF-7 cells, 4 h incubation at 37° C., ERα by ELISA; Max well 100 nM FUL, Min well 0.5% DMSO; read-out: Degradation of ERα by compounds DC50
Experimental: Experimental Example 1: MCF-7 ERα Degradation Experiment
Compounds were tested for their ability to degrade ERα receptors under experimental conditions.
Phenol red-free MEM medium was purchased from Wisent, fetal bovine serum was purchased from Biosera, and Human Total ERα/NR3A1 ELISA kits were purchased from R&D. MCF-7 cell line was purchased from the Cell Bank of Type Culture Collection Committee of the Chinese Academy of Sciences. Nivo5 multi-marker analyzer (PerkinElmer).
• 1. MCF-7 cells were resuspended in medium (phenol red-free MEM+5% Charcoal Dextran Stripped FBS+1% PS), seeded in a 96-well clear cell culture plate, and incubated overnight in a carbon dioxide incubator; • 2. ELISA plate was coated with stripes, Human Total ERα Capture Antibody was diluted with 1×PBS, and the plate was incubated at 25° C. overnight. Day Two: • 1. Cell administration: The compounds to be tested were diluted to the 8th concentration. The concentration of the compound was 20 μM, and the compound was diluted successively to the 8th concentration of 0.256 nM at 4 μM. Two duplicate wells were set. The compound was transferred to the intermediate plate and then to the cell plate to give a final DMSO concentration of 0.5% per well, and the plate was incubated at 37° C. for 4 h; • 2. preparation of standard curve solution: 110 ng/mL of standard curve stock solution was 6-fold diluted with buffer #8 to give a solution with a concentration of 18.3 ng/mL. Then, 8-point gradient dilution was performed using buffer #3 with a final concentration of 200 pg/mL to 1.56 pg/mL; • 3. the ELISA plate was washed 3 times with a washing solution (1×PBS containing 0.05% Tween); • 4. 300 μL of blocking solution (1×PBS containing 1% BSA) was added to each well, and the plate was incubated at 25° C. for 2 h; • 5. 1×PBS was pre-cooled. After the incubation of the compound, the supernatant was removed, the plate was washed with pre-cooled 1×PBS, the cell lysate was added, and the cells were lysed on ice for 15 min; • 6. the blocking solution was removed from the ELISA plate, the plate was washed, and step 3 was repeated; • 7. after the cells were lysed, in the cell plate, the cell lysate was 6-fold diluted with 150 μL of buffer #8 per well, the mixture was pipetted and mixed well, and 100 μL of solution per well was transferred to the ELISA plate; • 8. at the same time, 100 μL of Standard per well was transferred to the ELISA plate and incubated overnight at 25° C. Day Three: • 1. The supernatant was removed, and the plate was washed 3 times with a washing solution; • 2. Human Total ERα Detection Antibody stock solution ([…]) was 36-fold diluted with buffer #1 (1×PBS containing 1% BSA), and the final concentration of Detection Antibody was 400 ng/mL. 100 μL/well of the solution was transferred to the ELISA plate, and the plate was incubated at 25° C. for 2 h; • 3. the plate was washed with buffer #1; • 4. Streptavidin-HRP A was 200-fold diluted with buffer #1 (1×PBS containing 1% BSA), 100 μL/well of the solution was transferred to the ELISA plate, and the plate was incubated at 25° C. for 20 min; • 5. the plate was washed with buffer #1; • 6. 100 μL of Substrate Solution per well (1:1 mixture of reagent A (H2O2) and reagent B (tetramethylbenzidine)) was added to the ELISA plate, and the plate was incubated at 25° C. for 20 min; • 7. […] of stop solution was added and the OD450 absorbance was read on a plate reader. Data Analysis: […]

Compound	DC50
O=C1CC[C@H](N2Cc3cc(N4CCN(CC5CCN(c6ccc(C7=C(c8ccc(F)nc8)CCCc8cc(O)ccc87)cc6)CC5)CC4)ccc3C2=O)C(=O)N1 [Compound 19]	2.1 nM
Cc1ccc(C2=C(c3ccc(N4CCC(CN5CCN(c6ccc7c(c6)CN([C@H]6CCC(=O)NC6=O)C7=O)CC5)CC4)cc3)c3ccc(O)cc3CCC2)cc1 [Compound 11]	1 nM
COc1ccc2c(c1)OCCC(c1ccccc1)=C2c1ccc(N2CCC(CN3CCN(c4ccc5c(c4)CN([C@H]4CCC(=O)NC4=O)C5=O)CC3)CC2)cc1 [Compound 10]	5.7 nM
O=C1CC[C@H](N2Cc3cc(N4CCN(CC5CCN(c6ccc(C7=C(c8ccc(O)cc8)CCCc8cc(O)ccc87)cc6)CC5)CC4)ccc3C2=O)C(=O)N1 [Compound 9]	0.4 nM
O=C1CC[C@H](N2Cc3cc(N4CCN(CC5CCN(c6ccc(C7=C(c8cccnc8)CCCc8cc(O)ccc87)cc6)CC5)CC4)ccc3C2=O)C(=O)N1 [Compound 21]	1.9 nM
Cc1ccc(C2=C(c3ccc(N4CCC(CN5CCN(c6ccc7c(c6)CN([C@H]6CCC(=O)NC6=O)C7=O)CC5)CC4)cc3)c3ccc(O)cc3CCC2)cn1 [Compound 16]	7.7 nM
O=C1CC[C@H](N2Cc3cc(N4CCN(CC5CCN(c6ccc(C7=C(c8ccncc8)CCCc8cc(O)ccc87)cc6)CC5)CC4)ccc3C2=O)C(=O)N1 [Compound 20]	0.9 nM
Cc1nn(C)cc1C1=C(c2ccc(N3CCC(CN4CCN(c5ccc6c(c5)CN([C@H]5CCC(=O)NC5=O)C6=O)CC4)CC3)cc2)c2ccc(O)cc2CCC1 [Compound 18]	4.6 nM
O=C1CC[C@H](N2Cc3cc(N4CCN(CC5CCN(c6ccc(C7=C(c8ccc(OC(F)F)cc8)CCCc8cc(O)ccc87)cc6)CC5)CC4)ccc3C2=O)C(=O)N1 [Compound 24]	0.7 nM
COc1ccc2c(c1)CCCC(c1ccccc1)=C2c1ccc(N2CCC(CN3CCN(c4ccc5c(c4)CN([C@H]4CCC(=O)NC4=O)C5=O)CC3)CC2)cc1 [Compound 7]	8 nM
O=C1CC[C@H](N2Cc3cc(N4CCN(CC5CCN(c6ccc(C7=C(c8ccc(C(F)(F)F)nc8)CCCc8cc(O)ccc87)cc6)CC5)CC4)ccc3C2=O)C(=O)N1 [Compound 15]	1.7 nM
O=C1CC[C@H](N2Cc3cc(N4CCN(CCC5CCN(c6ccc(C7=C(c8ccccc8)CCCc8cc(O)ccc87)cc6)CC5)CC4)ccc3C2=O)C(=O)N1 [Compound 4]	1.5 nM

The next lines start with the values.

DC50	Compound
4.47 nM	O=C1CC[C@H](N2Cc3cc(N4CCN(CCC5CCN(c6ccc(C7=C(c8ccccc8)CCCc8cc(C(=O)O)ccc87)cc6)CC5)CC4)ccc3C2=O)C(=O)N1 [Compound 13]
2.69 nM	O=C1CCC(N2Cc3cc(N4CCN(CC5CCN(c6ccc(C7=C(c8ccccc8)CCCc8cc(O)ccc87)cc6)CC5)CC4)ccc3C2=O)C(=O)N1 (centres unmarked) [Compound 2]
1 nM	O=C1CC[C@H](N2Cc3cc(N4CCN(CC5CCN(c6ccc(C7=C(c8ccc(F)cc8)CCCc8cc(O)ccc87)cc6)CC5)CC4)ccc3C2=O)C(=O)N1 [Compound 6]
1.4 nM	CC(C)(O)c1ccc(C2=C(c3ccc(N4CCC(CN5CCN(c6ccc7c(c6)CN([C@H]6CCC(=O)NC6=O)C7=O)CC5)CC4)cc3)c3ccc(O)cc3CCC2)cn1 [Compound 23]
5.8 nM	O=C1CCC(N2Cc3cc(N4CCN(CC5CCN(c6ccc(C7=C(c8ccc(Cl)cc8Cl)CCCc8cc(C(=O)O)ccc87)cc6)CC5)CC4)ccc3C2=O)C(=O)N1 (centres unmarked) [Compound 3]
5.7 nM	O=C1CC[C@H](N2Cc3cc(N4CCN(CC5CCN(c6ccc(C7=C(c8ccc(OC(F)(F)F)cc8)CCCc8cc(O)ccc87)cc6)CC5)CC4)ccc3C2=O)C(=O)N1 [Compound 25]
1.8 nM	O=C1CC[C@H](N2Cc3cc(N4CCN(CC5CCN(c6ccc(C7=C(c8ccc(Cl)cc8)CCCc8cc(O)ccc87)cc6)CC5)CC4)ccc3C2=O)C(=O)N1 [Compound 5]
1.1 nM	O=C1CC[C@H](N2Cc3cc(N4CCN(CC5CCN(c6ccc(C7=C(c8ccccc8)CCCc8cc(O)ccc87)cc6)CC5)CC4)ccc3C2=O)C(=O)N1 [Compound 14]
9.4 nM	O=C1CC[C@H](N2Cc3cc(N4CCN(CC5CCN(c6ccc(C7=C(c8ccc(C9CC9)nc8)CCCc8cc(O)ccc87)cc6)CC5)CC4)ccc3C2=O)C(=O)N1 [Compound 17]
0.84 nM	O=C1CCC(N2Cc3cc(N4CCN(CCCCCOc5ccc(C6=C(c7ccccc7)CCCc7cc(O)ccc76)cc5)CC4)ccc3C2=O)C(=O)N1 (centres unmarked) [Compound 1]
8.3 nM	COc1ccc2c(c1)CCCC(c1ccc(F)cc1)=C2c1ccc(N2CCC(CN3CCN(c4ccc5c(c4)CN([C@H]4CCC(=O)NC4=O)C5=O)CC3)CC2)cc1 [Compound 8]
4.73 nM	O=C1CC[C@H](N2Cc3cc(N4CCN(CC5CCN(c6ccc(C7=C(c8ccccc8)CCCc8cc(C(=O)O)ccc87)cc6)CC5)CC4)ccc3C2=O)C(=O)N1 [Compound 12]
1.7 nM	O=C1CC[C@H](N2Cc3cc(N4CCN(CC5CCN(c6ccc(C7=C(c8ccc(OC9CC9)cc8)CCCc8cc(O)ccc87)cc6)CC5)CC4)ccc3C2=O)C(=O)N1 [Compound 26]
2.4 nM	Cc1ccc(C2=C(c3ccc(N4CCC(CN5CCN(c6ccc7c(c6)CN([C@H]6CCC(=O)NC6=O)C7=O)CC5)CC4)cc3)c3ccc(O)cc3CCC2)c(C)n1 [Compound 22]
